In patent US20250109104A1, “SQUARAINE FLUOROPHORES” (The General Hospital Corporation, priority 2022, published 2025):

Tests used:
cancer = details: in vivo; cited from earlier work
tumors = experiment: Intraoperative NIR imaging for fluorescence guided surgery (FGS) in tumor-bearing mice; type: in vivo
Protocol: FIG. 5 depicts intraoperative imaging of OCTL14 for fluorescence guided surgery (FGS). (a) FGS using the squaraine. Tumor-bearing mice were intravenously injected with 100 nmol of OCTL14. FGS was performed 6 h post-injection. The yellow circle indicates the lesions for which intraoperative image-guided surgeries were performed. The middle panels show the tumor locations before/after surgery and resected tumors of different sizes. Scale bars=1 cm. (b) Clinical impact of the use of OCTL14. The number of tumors detected using color images only was compared to those detected using NIR imaging by experienced surgeons.
Structure-inherent targeting: Squaraines are selectively taken up by cancer cells via organic cation transporters (OCTs), overexpressed by cancer cells (FIG. 4). This high affinity is mediated by the unique structure of the molecule. This was achieved this by introducing an asymmetric molecular conformation and surface charges. In this way, squaraines can be up-taken rapidly via transporter and selectively accumulate in cancer cells, not normal cells. In addition, we have shown that once they are taken up by cancer cells, squaraines can stay in lysosomes for hours for durable imaging. This feature is critical to have a clear contrast between cancerous and normal tissue for clear cancer imaging during surgery or medical procedures.

| Compound | blood half-life (cancer) | cancer targeting capability (cancer) | localization of cancer tissues (tumors; 6 h post-injection, 100 nmol intravenously, tumor-bearing mice) | resection of tumors under image guidance (tumors; FGS 6 h post-injection) | residual tumor after FGS (tumors; FGS 6 h post-injection) |
| --- | --- | --- | --- | --- | --- |
| CC1(C)C(/C=C/C=C/C=C/C=C2\N(CCCCS(=O)(=O)O)c3ccc4ccccc4c3C2(C)C)=[N+](CCCCS(=O)(=O)[O-])c2ccc3ccccc3c21 [ICG, indocyanine green] | short blood half-life | no specific cancer targeting capability |  |  |  |
| Br.C[N+]1=C(/C=C2\C(=O)C(/C=C3/N(CCC[N+](C)(C)C)c4ccc(F)cc4C3(C)C)=C2[O-])C(C)(C)c2ccccc21.[I-] [OCTL14, Mono ((Z)-2-((E)-(5-fluoro-3,3-dimethyl-1-(3-(trimethylammonio)propyl)indolin-2-ylidene)methyl)-3-oxo-4-((1,3,3-trimethyl-3H-indol-1-ium-2-yl)methylene)cyclobut-1-enolate) mono bromide monoiodide] |  |  | precise localization of cancer tissues | complete resection of tumors | no residual tumor |
